Assay results as given in patent US20040192751A1, “Amino acid composition for ameliorating liver failure” (priority 2001, published 2004).

Assays:
[1] = system: mice in which alcoholic functional disorders of a liver were developed; experiment: Serum GOT concentration 12 hours after ethanol administration in mice pre-administered amino acid compositions; assay type: in vivo; conditions: judged from GOT and GPT values 12 h after ethanol
Experimental: In the present Examples, outbreak and healing of functional disorders of a liver were judged by employing GOT (Glutamic Oxaloacetic Transaminase), GPT (Glutamic Pyruvic Transaminase), total cholesterol and triglyceride which are indexes for functional disorders of the liver.
(§1) Measurements were conducted using a clinical diagnosis kit available from Wako Pure Chemical Industries, Ltd.
The following reagents were used for measurement of GOT.
The action of the substrate enzyme liquid to a specimen to be measured generates glutamic acid and oxalacetic acid from L-aspartic acid and α-keto glutaric acid, respectively, by means of GOT in the specimen. […]
The hydrogen peroxide thus produced quantitatively and oxidatively condenses the TOOS and 4-aminoantipyrine to generate violet pigment (refer to Formula 1) by the action of the co-existing peroxidase (POD).
The active value of the GOT in the specimen is measured by the violet absorbance. The ascorbic acid contained in the specimen is decomposed by the ascorbic acid oxidase contained in the substrate enzyme liquid, thereby affecting little influence on the measured value. […]
After a standard specimen having a known concentration prepared by using the standard liquid was preliminarily heated and the substrate buffer was added thereto, the absorbance of the standard specimen was measured and a calibration curve was prepared using the measured values. […]

[2] = system: mice in which alcoholic functional disorders of a liver were developed; experiment: Total cholesterol amount in the liver 12 hours after ethanol administration; assay type: in vivo; conditions: 12 hours following the ethanol administration; control = no administration
Experimental: as §1
The following reagents were used for the measurement of the total cholesterol.
The action of the color generating agent to a specimen to be measured decomposes the cholesterols into the liberated cholesterols and fatty acids by the action of the cholesterol esterase. The cholesterols thus generated together with the liberated cholesterols already existing are oxidized to produce hydrogen peroxide by means of the action of the cholesterol oxidase. The hydrogen peroxide thus produced quantitatively and oxidatively condenses the phenols and 4-aminoantipyrine to generate red pigment (red quinone-based pigment, refer to Formula 3) by the action of the peroxidase (POD).
The concentration of the total cholesterol in the specimen was determined by measuring the red absorbance.
After 0.01 ml of the specimen was dissolved in isopropanol, 1.5ml of the color producing agent was added therein followed by heating at 37° C. for 10 minutes under sufficient agitation. The absorbance of the specimen at 505 nm was measured by using a blind specimen as reference by means of a spectrophotometer. […]

SMILES: N[C@@H](Cc1ccc(O)cc1)C(=O)O [0.25% Tyr, tyrosine]
- action for improving functional disorders of the liver using GOT and GPT as the indexes [1]: next most effective
- total cholesterol in the liver, compared with control (FIG. 5) [2]: values lower than those of the control

SMILES: N[C@@H](Cc1c[nH]c2ccccc12)C(=O)O [2% Trp, tryptophane]
- action for improving functional disorders of the liver using GOT and GPT as the indexes [1]: next most effective
- total cholesterol in the liver, compared with control (FIG. 5) [2]: values lower than those of the control
